Experimental data from patent publication US11071788B2, “Antibody drug conjugates of kinesin spindel protein (KSP) inhibitors with antiB7H3-antibodies” (BAYER PHARMA AKTIENGESELLSCHAFT, priority 2015, dated 2021).
Counter-ions that a name gives are not always drawn.

Columns and labels:
[1] = tested on: NCI-H292; assay: Cytotoxicity MTT assay, NCI-H292; format: cell-based, human
Source text: (§1) Table 2 below lists the IC50 values of representative working examples from the assay described and the corresponding cytotoxicity data (MTT assay).

[2] = tested on: KPL4; assay: Cytotoxicity MTT assay, KPL4; format: cell-based
Source text: as §1

[3] = tested on: Caco-2 cells; assay: Cell permeability flux assay using Caco-2 cells; format: in vitro ADME; conditions: for Papp (B-A): Caco-2, 2 hours incubation; for Efflux ratio: ratio of Papp (B-A) to Papp (A-B), Caco-2
[4] = molecular target: motor domain of the human kinesin spindle protein KSP/Eg5 (Homo sapiens (Human), UniProt P52732); assay: Inhibition of the kinesin spindle protein KSP/Eg5 (ATPase, malachite green); format: biochemical; conditions: 10 nM KSP motor domain, microtubuli, 500 μM ATP, 2 h RT
Method: The motor domain of the human kinesin spindle protein KSP/Eg5 (tebu-bio/Cytoskeleton Inc, No. 027EG01-XL) was incubated in a concentration of 10 nM with microtubuli (bovine or porcine, tebu-bio/Cytoskeleton Inc) stabilized with 50 μg/ml taxol (Sigma No. T7191-5MG) for 5 min at RT in 15 mM PIPES, pH 6.8 (5 mM MgCl2 and 10 mM DTT, Sigma). […] Incubation was at RT for 2 h. ATPase activity was detected by detecting the inorganic phosphate formed using malachite green (Biomol). […] The positive controls used were monastrol (Sigma, M8515-1 mg) and ispinesib (AdooQ Bioscience A10486). The individual data of the dose-activity curve are eight-fold determinations. The IC50 values are means of two independent experiments.

[5] = Homo sapiens, NCI-H292, MTT assay

Chain of motor domain of the human kinesin spindle protein KSP/Eg5 (P52732 18-359): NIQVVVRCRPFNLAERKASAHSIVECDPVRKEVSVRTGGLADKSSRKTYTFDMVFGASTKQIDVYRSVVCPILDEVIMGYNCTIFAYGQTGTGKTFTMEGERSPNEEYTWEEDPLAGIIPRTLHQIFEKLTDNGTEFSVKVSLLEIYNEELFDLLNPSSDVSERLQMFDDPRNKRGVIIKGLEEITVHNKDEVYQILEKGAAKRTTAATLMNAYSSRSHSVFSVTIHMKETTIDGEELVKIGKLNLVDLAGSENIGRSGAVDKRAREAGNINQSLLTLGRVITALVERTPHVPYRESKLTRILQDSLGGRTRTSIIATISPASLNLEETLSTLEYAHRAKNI

Row | Structure (SMILES) | IC50 [1, 5] | IC50 ([2]; KPL4, MTT assay) | also measured
1 | CC(C)(C)[C@H](c1cc(-c2cc(F)ccc2F)cn1Cc1ccccc1)N(CC[C@H](N)C(=O)NCCC(=O)N[C@H](CCC(=O)O)C(=O)O)C(=O)CO [Example M24, N-{(2S)-2-Amino-4-[{(1R)-1-[1-benzyl-4-(2,5-difluorophenyl)-1H-pyrrol-2-yl]-2,2-dimethylpropyl}(glycoloyl)amino]butanoyl}-beta-alanyl-D-glutamic acid-trifluoroacetic acid] | 167 nM | 500 nM | 
2 | CC(C)(C)[C@H](c1cc(-c2cc(F)ccc2F)cn1Cc1ccccc1)N(CC[C@H](N)C(=O)NCCNC(=O)CSC[C@H](N)C(=O)O)C(=O)CO [Example M7, S-(2-{[2-({(2S)-2-Amino-4-[{(1R)-1-[1-benzyl-4-(2,5-difluorophenyl)-1H-pyrrol-2-yl]-2,2-dimethylpropyl}(glycoloyl)amino]butanoyl}amino)ethyl]amino}-2-oxoethyl)-L-cysteine/trifluoroacetic acid (1:1)] | 22.2 nM | 92.5 nM | 
3 | CC(C)(C)[C@H](c1cc(-c2cc(F)ccc2F)cn1Cc1ccccc1)N(CC[C@H](N)C(=O)NCCOCCN1C(=O)CC(SC[C@H](N)C(=O)O)C1=O)C(=O)CO (stereo partly drawn) [Example M4, S-(1-{2-[2-({(2S)-2-Amino-4-[{(1R)-1-[1-benzyl-4-(2,5-difluorophenyl)-1H-pyrrol-2-yl]-2,2-dimethylpropyl}(glycoloyl)amino]butanoyl}amino)ethoxy]ethyl}-2,5-dioxopyrrolidin-3-yl)-L-cysteine/trifluoroacetic acid (1:1)] | 44.3 nM | 176 nM | 
4 | CC(C)(C)[C@H](c1cc(-c2cc(F)ccc2F)cn1Cc1ccccc1)N(CCCN)C(=O)CO [Example M9, N-(3-Aminopropyl)-N-{(1R)-1-[1-benzyl-4-(2,5-difluorophenyl)-1H-pyrrol-2-yl]-2,2-dimethylpropyl}-2-hydroxyacetamide] |  |  | IC50 ([1]; Homo sapiens, NCI-H292): 0.774 nM; IC50 ([2]; KPL4): 0.257 nM
5 | CC(C)(C)[C@H](c1cc(-c2cc(F)ccc2F)cn1Cc1ccccc1)N(CC[C@H](N)C(=O)NCCNC(=O)CNC(=O)CC(SC[C@H](N)C(=O)O)C(=O)O)C(=O)CO (single isomer, unassigned) [Example M14] |  |  | IC50 ([1]; MTT assay): 174 nM; IC50 ([2]; MTT assay): 182 nM
6 | CC(C)(C)[C@H](c1cc(-c2cc(F)ccc2F)cn1Cc1ccccc1)N(CC[C@H](N)C(=O)NCCNC(=O)CC[C@H](N)C(=O)O)C(=O)CO [Example M18, N-[2-({(2S)-2-Amino-4-[{(1R)-1-[1-benzyl-4-(2,5-difluorophenyl)-1H-pyrrol-2-yl]-2,2-dimethylpropyl}(glycoloyl)amino]butanoyl}amino)ethyl]-L-glutamine/trifluoroacetic acid (1.1)] | 35.5 nM |  | 
7 | CC(C)(C)[C@H](c1cc(-c2cc(F)ccc2F)cn1Cc1ccccc1)N(CCCN)C(=O)CSC[C@H](NC(=O)CCC(=O)O)C(=O)O [Example M12, 4-{[(1R)-2-({2-[(3-Aminopropyl) {(1R)-1-[1-benzyl-4-(2,5-difluorophenyl)-1H-pyrrol-2-yl]-2,2-dimethylpropyl}amino]-2-oxoethyl}sulphanyl)-1-carboxyethyl]amino}-4-oxobutanoic acid/trifluoroacetic acid (1:1)] | 33 nM |  | 
8 | CC(C)(C)[C@H](c1cc(-c2cc(F)ccc2F)cn1Cc1ccccc1)N(CC[C@H](N)C(=O)NCCC(=O)N[C@@H](CCC(=O)O)C(=O)O)C(=O)CO [Example M23, N-{(2S)-2-Amino-4-[{(1R)-1-[1-benzyl-4-(2,5-difluorophenyl)-1H-pyrrol-2-yl]-2,2-dimethylpropyl}(glycoloyl)amino]butanoyl}-beta-alanyl-L-glutamic acid-trifluoroacetic acid (1.1)] | 500 nM | 500 nM | 
9 | CC(C)(C)[C@H](c1cc(-c2cc(F)ccc2F)cn1Cc1ccccc1)N(CCCN)C(=O)CSC[C@H](NC(=O)CCOCCOCCOCCOCCNC(=O)CNC(=O)CC(SC[C@H](N)C(=O)O)C(=O)O)C(=O)O (stereo partly drawn) [Example M20, (1R,4R,27R,33R)-1-Amino-32-(3-aminopropyl)-33-[1-benzyl-4-(2,5-difluorophenyl)-1H-pyrrol-2-yl]-34,34-dimethyl-6,9,25,31-tetraoxo-13,16,19,22-tetraoxa-3,29-dithia-7,10,26,32-tetraazapentatriacontane-1,4,27-tricarboxylic acid/trifluoroacetic acid (1:2)] | 149 nM | 213 nM | 
10 | CC(C)(C)[C@H](c1cc(-c2cc(F)ccc2F)cn1Cc1ccccc1)N(CC[C@H](N)C(=O)NCCNC(=O)CNC(=O)C(CC(=O)O)SC[C@H](N)C(=O)O)C(=O)CO (single isomer, unassigned) [Example M16] | 143 nM | 195 nM | 
11 | CC(C)(C)[C@H](c1cc(-c2cc(F)ccc2F)cn1Cc1ccccc1)N(CCCN)C(=O)CSC[C@H](NC(=O)CCOCCOCCOCCOCCNC(=O)CNC(=O)CC(SC[C@@H](N)C(=O)O)C(=O)O)C(=O)O (some centres unmarked) [Example M22] |  |  | IC50 ([1]; MTT assay): 28.9 nM; Papp (B-A) [3]: 0.9 nm/s; IC50 ([2]; MTT assay): 182 nM
12 | CC(C)(C)[C@H](c1cc(-c2cc(F)ccc2F)cn1Cc1ccccc1)N(CC[C@H](N)C(=O)NCCNC(=O)CNC(=O)CC(SC[C@H](N)C(=O)O)C(=O)O)C(=O)CO (some centres unmarked) [Example M2] |  |  | IC50 ([1]; MTT assay): 204 nM; Papp (B-A) [3]: 4.8 nm/s; IC50 ([2]; MTT assay): 163 nM
13 | CC(C)(C)[C@H](c1cc(-c2cc(F)ccc2F)cn1Cc1ccccc1)N(CC[C@H](N)C(=O)NCCNC(=O)CNC(=O)C(CC(=O)O)SC[C@H](N)C(=O)O)C(=O)CO (single isomer, unassigned) [Example M15] | 133 nM | 169 nM | 
14 | CC(C)(C)[C@H](c1cc(-c2cc(F)ccc2F)cn1Cc1ccccc1)N(CC[C@H](N)C(=O)NCCNC(=O)CNC(=O)CC(SC[C@H](N)C(=O)O)C(=O)O)C(=O)CO (single isomer, unassigned) [Example M13] | 152 nM | 169 nM | 
15 | CC(C)(C)[C@H](c1cc(-c2cc(F)ccc2F)cn1Cc1ccccc1)N(CC[C@H](N)C(=O)N[C@H](CNC(=O)CNC(=O)CC(SC[C@H](N)C(=O)O)C(=O)O)C(=O)O)C(=O)CO (some centres unmarked) [Example M3] |  |  | IC50 ([1]; MTT assay): 32.1 nM; Papp (B-A) [3]: 1.4 nm/s; Efflux ratio [3]: 1.3; IC50 ([2]; MTT assay): 90 nM; IC50 [4]: 1.52 nM
16 | CC(C)(C)[C@H](c1cc(-c2cc(F)ccc2F)cn1Cc1ccccc1)N(CC[C@H](N)C(=O)NCCC(=O)NCCCC[C@H](N)C(=O)O)C(=O)CO [Example M19, N^6—(N-{(2S)-2-Amino-4-[{(1R)-1-[1-benzyl-4-(2,5-difluorophenyl)-1H-pyrrol-2-yl]-2,2-dimethylpropyl}(glycoloyl)amino]butanoyl}-beta-alanyl)-L-lysine/trifluoroacetic acid (1:1)] | 121 nM |  | 
17 | CC(C)(C)[C@H](c1cc(-c2cc(F)ccc2F)cn1Cc1ccccc1)N(CCCN)C(=O)CSC[C@H](N)C(=O)O [Example M11, S-{2-[(3-Aminopropyl){(1R)-1-[1-benzyl-4-(2,5-difluorophenyl)-1H-pyrrol-2-yl]-2,2-dimethyl-propyl}amino]-2-oxoethyl}-L-cysteine/trifluoroacetic acid (1:2)] | 0.0432 nM |  | 
18 | CC(C)(C)[C@H](c1cc(-c2cc(F)ccc2F)cn1Cc1ccccc1)N(CCCN)C(=O)CSC[C@H](NC(=O)CCOCCOCCOCCOCCNC(=O)CCNC(=O)CC(SC[C@H](N)C(=O)O)C(=O)O)C(=O)O (some centres unmarked) [Example M10] |  |  | IC50 ([1]; MTT assay): 303 nM; IC50 ([2]; MTT assay): 226 nM; IC50 [4]: 0.47 nM
19 | CC(C)(C)[C@H](c1cc(-c2cc(F)ccc2F)cn1Cc1ccccc1)N(CC[C@H](N)C(=O)O)C(=O)CO [Example M17, (2S)-2-Amino-4-[{(1R)-1-[1-benzyl-4-(2,5-difluorophenyl)-1H-pyrrol-2-yl]-2,2-dimethylpropyl}(glycoloyl)amino]butanoic acid hydrochloride (1.1)] | 7.35 nM |  | 
20 | CC(C)(C)[C@H](c1cc(-c2cc(F)ccc2F)cn1Cc1ccccc1)N(CC[C@H](N)C(=O)NCCNC(=O)CN1C(=O)CC(SC[C@H](N)C(=O)O)C1=O)C(=O)CO (stereo partly drawn) [Example M1, S-[1-(2-{[2-({(2S)-2-Amino-4-[{(1R)-1-[1-benzyl-4-(2,5-difluorophenyl)-1H-pyrrol-2-yl]-2,2-dimethylpropyl}(glycoloyl)amino]butanoyl}amino)ethyl]amino}-2-oxoethyl)-2,5-dioxopyrrolidin-3-yl]-L-cysteine/trifluoroacetic acid (1:1)] | 500 nM | 500 nM | 
21 | CC(C)(C)[C@H](c1cc(-c2cc(F)ccc2F)cn1Cc1ccccc1)N(CC[C@H](N)C(=O)NCCNC(=O)CNC(=O)C(CC(=O)O)SC[C@H](N)C(=O)O)C(=O)CO (mixture of isomers) [Example M27, 4-[(2-{[2-({(2S)-2-Amino-4-[{(1R)-1-[1-benzyl-4-(2,5-difluorophenyl)-1H-pyrrol-2-yl]-2,2-dimethylpropyl}(glycoloyl)amino]butanoyl}amino)ethyl]amino}-2-oxoethyl)amino]-3-{[(2R)-2-amino-2-carboxyethyl]sulfanyl}-4-oxobutanoic acid-trifluoroacetic acid (1:1)] | 276 nM |  | 
22 | CC(C)(C)[C@H](c1cc(-c2cc(F)ccc2F)cn1Cc1ccccc1)N(CC[C@H](N)C(=O)NCCOCCNC(=O)CC(SC[C@H](N)C(=O)O)C(=O)O)C(=O)CO (some centres unmarked) [Example M5] |  |  | IC50 ([1]; MTT assay): 79.4 nM; Papp (B-A) [3]: 20.3 nm/s; Efflux ratio [3]: 26.5; IC50 ([2]; MTT assay): 222 nM; IC50 [4]: 0.457 nM
